The record followed here is patent US9708336B2, “Metallo-beta-lactamase inhibitors” (priority 2014, dated 2017).

SMILES strings stand for the structures. Like-named read-outs stand apart in the source and are kept apart here.

The target in one experiment is NDM-1 (Klebsiella pneumoniae, UniProt C7C422). Kind of experiment: biochemical. The class given is biochemical. The note with it: fluorescence assay with CCF2-FA substrate; read-out: NDM-1 IC50.
Another experiment concerns the target VIM-1 (Pseudomonas aeruginosa (strain ATCC 15692 / DSM 22644 / CIP 104116 / JCM 14847 / LMG 12228 / 1C / PRS 101 / PAO1), UniProt A0A0F7KYQ8). Kind of experiment: Enzyme activity: determination of IC50, fluorescence assay with CCF2-FA substrate (VIM-1). The class given is biochemical.
Experiment [1] concerns Escherichia coli expressing NDM-1 (CLB30005). Kind of experiment: Antibiotic potentiation activity: synergistic concentration (MITC95) with imipenem, OD600 growth. The class given is cell-based. The note with it: concentration giving 95% inhibition of bacterial growth. In outline:
(§1)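 Imipenem (4 μg/ml final; 1 μg/ml as an option) was combined with compound against isolates diluted 1:100 from saline suspensions into 1.1× CAMHB. Growth was assessed by absorbance at 22–24 h, 35 °C.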

Experiment [2] concerns Serratia marcescens expressing IMP-1 (CL5741). The experiment is described as above. The class given is cell-based. The note with it: concentration giving 95% inhibition of bacterial growth. Summed up:
as §1

Experiment [3] concerns Klebsiella pneumoniae expressing VIM-1 (IHMA599644). Described as above. The note with it: concentration giving 95% inhibition of bacterial growth. The class given is cell-based. Summed up: as §1
The next experiment deals with IMP-1 (Serratia marcescens, UniProt P52699). Kind of experiment: biochemical. The conditions noted are these: fluorescence assay with CCF2-FA substrate; read-out: IMP-1 IC50. The class given is biochemical.
IMP-1, sequence (P52699 whole entry, looked up): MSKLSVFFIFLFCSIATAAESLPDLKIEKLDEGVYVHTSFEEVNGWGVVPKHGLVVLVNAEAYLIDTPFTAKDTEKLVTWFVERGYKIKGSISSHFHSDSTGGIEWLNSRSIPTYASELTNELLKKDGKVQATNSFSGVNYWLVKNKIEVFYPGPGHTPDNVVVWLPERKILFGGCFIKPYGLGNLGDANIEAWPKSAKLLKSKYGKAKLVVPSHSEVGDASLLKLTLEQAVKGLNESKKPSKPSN
Where [4] appears, read: fluorescence assay with CCF2-FA substrate, read-out: VIM-1 IC50.
The mark [5] stands for this setting: VIM-1 IC50, fluorescence assay with CCF2-FA substrate.

NDM-1, sequence (C7C422 whole entry, looked up, species assumed): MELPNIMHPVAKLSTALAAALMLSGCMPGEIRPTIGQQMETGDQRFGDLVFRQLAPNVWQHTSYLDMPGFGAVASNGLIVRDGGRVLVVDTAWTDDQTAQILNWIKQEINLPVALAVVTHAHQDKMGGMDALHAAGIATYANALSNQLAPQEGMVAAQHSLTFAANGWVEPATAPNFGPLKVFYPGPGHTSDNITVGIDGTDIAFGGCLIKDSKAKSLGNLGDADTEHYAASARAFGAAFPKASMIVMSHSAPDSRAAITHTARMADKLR

Take `Cc1nccn1-c1nc(-c2cccc(S(N)(=O)=O)c2-c2nn[nH]n2)cs1` [Example 102, 3-[2-(2-methyl-1H-imidazol-1-yl)-1,3-thiazol-4-yl]-2-(2H-tetrazol-5-yl)benzenesulfonamide]: the concentration for half-maximal inhibition (IC50) stood at 128 nM at NDM-1, 524 nM on VIM-1 (setting [4]) and 174 nM at IMP-1. Moreover, in experiment [1], the “Escherichia coli expressing NDM-1 (CLB 30005) MITC95” value is 9.375 µM. Also, the “Serratia marcescens expressing IMP-1 (CL5741) MITC95” value in experiment [2] came to 53.13 µM. Also, the “Klebsiella pneumoniae expressing VIM-1 (IHMA 599644) MITC95” value in experiment [3] was more than 200 µM.

Regarding `NS(=O)(=O)c1cccc(-c2c[nH]c3nccnc23)c1-c1nn[nH]n1` [Example 104, 3-(5H-pyrrolo[2,3-b]pyrazin-7-yl)-2-(2H-tetrazol-5-yl)benzenesulfonamide], the results for the IC50 at NDM-1, at VIM-1 (setting [4]) and at IMP-1 were 16.8 nM, 107 nM and 287 nM, respectively. In experiment [1], the “Escherichia coli expressing NDM-1 (CLB 30005) MITC95” value came out at 0.9766 µM. Also, the “Serratia marcescens expressing IMP-1 (CL5741) MITC95” value in experiment [2] is 15.63 µM. Further, the “Klebsiella pneumoniae expressing VIM-1 (IHMA 599644) MITC95” value in experiment [3] amounted to 25 µM.

For the molecule `NS(=O)(=O)c1cccc(-c2cnn3ncccc23)c1-c1nn[nH]n1` [Example 105, 3-pyrazolo[1,5-b]pyridazin-3-yl-2-(2H-tetrazol-5-yl)benzenesulfonamide], the IC50 on NDM-1 worked out at 14.3 nM; at VIM-1 (setting [4]), 70.4 nM; at IMP-1, 374 nM. Also, the “Escherichia coli expressing NDM-1 (CLB 30005) MITC95” value in experiment [1] stood at 0.9766 µM. The “Serratia marcescens expressing IMP-1 (CL5741) MITC95” value in experiment [2] is 31.25 µM. The “Klebsiella pneumoniae expressing VIM-1 (IHMA 599644) MITC95” value in experiment [3] amounted to 18.75 µM.

On to `CC(C)n1nccc1-c1cccc(S(N)(=O)=O)c1-c1nn[nH]n1` [Example 106, 3-[1-(1-methylethyl)-1H-pyrazol-5-yl]-2-(2H-tetrazol-5-yl)benzenesulfonamide], for which the values for the IC50 on NDM-1, at VIM-1 (setting [4]) and at IMP-1 were 9.63 nM, 962 nM and 1800 nM, respectively. Also, the “Escherichia coli expressing NDM-1 (CLB 30005) MITC95” value in experiment [1] came out at 3.906 µM. Besides, in experiment [2], the “Serratia marcescens expressing IMP-1 (CL5741) MITC95” value came to 62.5 µM. The “Klebsiella pneumoniae expressing VIM-1 (IHMA 599644) MITC95” value in experiment [3] was found to be 200 µM.

As for `NS(=O)(=O)c1cccc(-c2cnn3c2CCCC3)c1-c1nn[nH]n1` [Example 107, 3-(4,5,6,7-tetrahydropyrazolo[1,5-a]pyridin-3-yl)-2-(2H-tetrazol-5-yl)benzenesulfonamide], the figures for the IC50 at NDM-1, on VIM-1 (setting [4]) and on IMP-1 were 10 nM, 194 nM and 365 nM, respectively. Moreover, the “Escherichia coli expressing NDM-1 (CLB 30005) MITC95” value in experiment [1] came out at 3.906 µM. For the same molecule, the “Serratia marcescens expressing IMP-1 (CL5741) MITC95” value in experiment [2] is 15.63 µM. In addition, the “Klebsiella pneumoniae expressing VIM-1 (IHMA 599644) MITC95” value in experiment [3] was 200 µM.

Consider `Cc1sccc1-c1cccc(S(N)(=O)=O)c1-c1nn[nH]n1` [Example 108, 3-(2-methylthiophen-3-yl)-2-(2H-tetrazol-5-yl)benzenesulfonamide], for which the half-inhibitory concentration (IC50) on NDM-1 was determined as 5.8 nM; at VIM-1 (setting [5]), 45 nM; on IMP-1 it was 255 nM. Besides, the “Escherichia coli expressing NDM-1 (CLB 30005) MITC95” value in experiment [1] is 1.172 µM. Further, the “Serratia marcescens expressing IMP-1 (CL5741) MITC95” value in experiment [2] amounted to 18.75 µM. Also, the “Klebsiella pneumoniae expressing VIM-1 (IHMA 599644) MITC95” value in experiment [3] turned out to be 37.5 µM.

In the case of `NS(=O)(=O)c1cccc(-c2cn(S(=O)(=O)c3ccccc3)c3ncccc23)c1-c1nn[nH]n1` [Example 109, 3-[1-(phensulfonyl)-1H-pyrrolo[2,3-b]pyridin-3-yl]-2-(2H-tetrazol-5-yl)benzenesulfonamide], the 50% inhibitory concentration (IC50) on NDM-1 is 2.21 nM; against VIM-1 (setting [5]) it was 0.637 nM; at IMP-1, 38.9 nM. In addition, in experiment [1], the “Escherichia coli expressing NDM-1 (CLB 30005) MITC95” value was found to be 12.5 µM. For the same molecule, in experiment [2], the “Serratia marcescens expressing IMP-1 (CL5741) MITC95” value turned out to be 12.89 µM. For the same molecule, the “Klebsiella pneumoniae expressing VIM-1 (IHMA 599644) MITC95” value in experiment [3] is 18.75 µM.

The term IC50 denotes the concentration needed to halve the response being measured.
